The assay has as its system T1, human A1AR.
T1 construct: host or cells: HEK293 A1AR Nomad cell line
Put plainly: A1AR cAMP assay, HEK293 A1AR Nomad cell line (Innoprot), agonist mode. The assay is classed as cell-based. The conditions noted are these: compounds at 10 µM, normalized to 10 µM NECA (100%) and vehicle DMSO (0%). From the text: For screening of the initial compounds predicted by machine learning models to activate A1AR receptor, we used the HEK293 A1AR Nomad cell line, which consists of HEK293 cells stably expressing human A1AR with no tag. This cell line has been designed to assay compounds or analyze their capability to modulate the A1AR. When the agonist binds to A1AR in this engineered cell line a Go protein is activated, which in turn, triggers a cellular response mediated by cAMP inhibition. This cellular response can be measured by quantifying the increase in fluorescence intensity and its cellular distribution. An agonist assay was performed for 29 compounds (predicted to be active by the machine learning model) in the human recombinant HEK293 A1AR Nomad cell line using a fluorescence-based assay. An agonist effect of the compounds was measured by quantifying the changes in the fluorescence emission cAMP Nomad biosensor, this elevation of fluorescence was analyzed using a plate reader Synergy 2 (Biotek, Winooski, VT). The error bars represent the standard deviation among the three replicate wells. The 29 compounds were tested at 10 μM using nonselective AR agonist adenosine-5′-N-ethyluronamide (NECA) at 10 μM as a reference.
On the technique in general: Changes in cAMP serve as a functional read-out for many G protein-coupled receptors.

Take `N#Cc1ccc(Oc2ccc3c(c2)COB3O)cc1` [Crisaborole]: the “normalized activity with respect to the positive control” value was 98.52%.

Values taken from publication PMC9257522, “Machine Learning for Discovery of New ADORA Modulators” (Frontiers in Pharmacology, 2022).
